The values below come from patent US20260216170A1, “TETRAHYDROISOQUINOLINE HETEROBIFUNCTIONAL BCL-XL DEGRADERS” (Treeline Biosciences, Inc., priority 2023, published 2026).

This assay has as its target T1, Human BCL-XL protein (N-terminal HiBiT tagged BCL-XL expressed in HT1080 cells) (Homo sapiens, UniProt Q07817).
T1 construct: expressed in transfected cells; host or cells: HT-1080 (ATCC CCL-121), stably transduced with lentivirus pLV-UBC-N-HiBiT-BCL-XL-PGK-puro and selected with puromycin
As to the kind of experiment: HiBiT Based Degradation Assay. In kind it is cell-based. The note with it: 24 hours incubation; for DC50: BCL-XL degradation, HT1080 cells expressing N-HiBiT-BCL-XL, normalized with DMSO control, geometric mean for multiple data points, read-out: EC50 (24 h); for Ymin (24 h): bottom of BCL-XL degradation curve (remaining HiBiT-BCL-XL signal vs DMSO control), HT1080 cells. The gist of the method: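 BCL-XL degradation was read as Nano-Glo HiBiT lytic luminescence relative to DMSO after a 24 h compound treatment of HT1080 cells carrying stably integrated N-HiBiT-BCL-XL. EC50 values come from four-parameter logistic curves, with the hook-curve minimum fixed as bottom, and are geometric means where tested repeatedly.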

T1 sequence (Q07817 whole entry): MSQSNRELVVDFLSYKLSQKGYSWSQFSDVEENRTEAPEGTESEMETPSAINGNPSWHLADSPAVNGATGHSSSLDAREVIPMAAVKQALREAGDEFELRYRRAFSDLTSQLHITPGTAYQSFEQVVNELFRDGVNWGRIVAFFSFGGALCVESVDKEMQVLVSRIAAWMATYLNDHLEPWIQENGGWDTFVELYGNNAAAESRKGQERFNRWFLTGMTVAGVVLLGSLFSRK

On to `Cn1nc(C2CCC(=O)NC2=O)c2ccc(NC(=O)CN3CCC(CCCOc4cccc(-c5ccc(N6CCc7cccc(C(=O)Nc8nc9ccccc9s8)c7C6)nc5C(=O)O)c4F)CC3)cc21` (centres unmarked) [Compound 198], for which the DC50 was 10 to 100 nM and the “Ymin (24 h)” value is on record as “B (30% ≤ Ymin < 50%)”.
With `COc1c(NC(=O)CN2CC[C@H](CCCOc3cccc(-c4ccc(N5CCc6cccc(C(=O)Nc7nc8ccccc8s7)c6C5)nc4C(=O)O)c3C)C[C@H]2C)ccc2c(C3CCC(=O)NC3=O)nn(C)c12` (some centres unmarked) [Compound 208c], the DC50 fell in the range of 10 to 100 nM and the “Ymin (24 h)” value is “B (30% ≤ Ymin < 50%)”.
The matching figures for `Cn1nc(C2CCC(=O)NC2=O)c2ccc(NC(=O)CN3CCC(CCCOc4ccc(-c5ccc(N6CCc7ccnc(C(=O)Nc8nc9ccccc9s8)c7C6)nc5C(=O)O)c(C(F)(F)F)c4)CC3)cc21` (centres unmarked) [Compound 157, 6-[8-(1,3-benzothiazol-2-ylcarbamoyl)-3,4-dihydro-1H-2,7-naphthyridin-2-yl]-3-[4-[3-[1-[2-[[3-(2,6-dioxo-3-piperidyl)-1-methyl-indazol-6-yl]amino]-2-oxo-ethyl]-4-piperidyl]propoxy]-2-(trifluoromethyl)phenyl]pyridine-2-carboxylic acid]: 10 to 100 nM and “A (Ymin < 30%)”.
With `Cc1cc(OCCCC2CCN(CCCc3ccc4c(C5CCC(=O)NC5=O)nn(C)c4c3)CC2)ccc1-c1ccc(N2CCc3cccc(C(=O)Nc4nc5ccccc5s4)c3C2)nc1C(=O)O` (centres unmarked) [Compound 151, 6-(8-(benzo[d]thiazol-2-ylcarbamoyl)-3,4-dihydroisoquinolin-2(1H)-yl)-3-(4-(3-(1-(3-(3-(2,6-dioxopiperidin-3-yl)-1-methyl-1H-indazol-6-yl)propyl)piperidin-4-yl)propoxy)-2-methylphenyl)picolinic acid], the DC50 was less than 10 nM and the “Ymin (24 h)” value is listed as “A (Ymin < 30%)”.
Turning to `Cc1c(OCCCC2(O)CCN(CC(=O)Nc3ccc4c(C5CCC(=O)NC5=O)nn(C)c4c3)CC2)cccc1-c1ccc(N2CCc3cccc(C(=O)Nc4nc5ccccc5s4)c3C2)nc1C(=O)O` (centres unmarked) [Compound 108, 6-(8-(benzo[d]thiazol-2-ylcarbamoyl)-3,4-dihydroisoquinolin-2(1H)-yl)-3-(3-(3-(1-(2-((3-(2,6-dioxopiperidin-3-yl)-1-methyl-1H-indazol-6-yl)amino)-2-oxoethyl)-4-hydroxypiperidin-4-yl)propoxy)-2-methylphenyl)picolinic acid], the DC50 lay in the range of 10 to 100 nM and the “Ymin (24 h)” value was “B (30% ≤ Ymin < 50%)”.
The matching figures for `Cc1c(OC[C@H]2C[C@H]2C2CCN(CC(=O)Nc3ccc4c(C5CCC(=O)NC5=O)nn(C)c4c3)CC2)cccc1-c1ccc(N2CCc3cccc(C(=O)Nc4nc5ccccc5s4)c3C2)nc1C(=O)O` (single isomer, unassigned) [Compound 1001c]: 10 to 100 nM and “B (30% ≤ Ymin < 50%)”.
On to `COc1c(NC(=O)CN2CCC3(CC2)CC(Oc2ccc(-c4ccc(N5CCc6cccc(C(=O)Nc7nc8ccccc8s7)c6C5)nc4C(=O)O)c(C)c2)C3)ccc2c(C3CCC(=O)NC3=O)nn(C)c12` (centres unmarked) [Compound 170, 6-(8-(benzo[d]thiazol-2-ylcarbamoyl)-3,4-dihydroisoquinolin-2(1H)-yl)-3-(4-((7-(2-((3-(2,6-dioxopiperidin-3-yl)-7-methoxy-1-methyl-1H-indazol-6-yl)amino)-2-oxoethyl)-7-azaspiro[3.5]nonan-2-yl)oxy)-2-methylphenyl)picolinic acid], for which the DC50 was less than 10 nM and the “Ymin (24 h)” value is reported as “A (Ymin < 30%)”.
The matching figures for `Cc1cc(O[C@@H](C)CCC2CCN(CC(=O)Nc3ccc4c(C5CCC(=O)NC5=O)nn(C)c4n3)CC2)ccc1-c1ccc(N2CCc3cccc(C(=O)Nc4nc5ccccc5s4)c3C2)nc1C(=O)O` (single isomer, unassigned) [Compound 225a]: 10 to 100 nM and “B (30% ≤ Ymin < 50%)”.
Turning to `COc1c(NC(=O)CN2CCC(CCCOc3cccc(-c4ccc(N5CCc6ccnc(C(=O)Nc7nc8ccccc8s7)c6C5)nc4C(=O)O)c3C(F)(F)F)CC2)ccc2c(C3CCC(=O)NC3=O)nn(C)c12` (centres unmarked) [Compound 180, 6-[8-(1,3-benzothiazol-2-ylcarbamoyl)-3,4-dihydro-1H-2,7-naphthyridin-2-yl]-3-[3-[3-[1-[2-[[3-(2,6-dioxo-3-piperidyl)-7-methoxy-1-methyl-indazol-6-yl]amino]-2-oxo-ethyl]-4-piperidyl]propoxy]-2-(trifluoromethyl)phenyl]pyridine-2-carboxylic acid], the DC50 was 10 to 100 nM and the “Ymin (24 h)” value was “B (30% ≤ Ymin < 50%)”.
Regarding `COc1c(NC(=O)CN2CCC3(CC2)CC(Oc2ccc(-c4ccc(N5CCc6ccnc(C(=O)Nc7nc8ccccc8s7)c6C5)nc4C(=O)O)c(C)c2)C3)ccc2c(C3CCC(=O)NC3=O)nn(C)c12` (centres unmarked) [Compound 187, 6-[8-(1,3-benzothiazol-2-ylcarbamoyl)-3,4-dihydro-1H-2,7-naphthyridin-2-yl]-3-[4-[[7-[2-[[3-(2,6-dioxo-3-piperidyl)-7-methoxy-1-methyl-indazol-6-yl]amino]-2-oxo-ethyl]-7-azaspiro[3.5]nonan-2-yl]oxy]-2-methyl-phenyl]pyridine-2-carboxylic acid], the DC50 is less than 10 nM and the “Ymin (24 h)” value was “A (Ymin < 30%)”.
Take `COc1c(NC(=O)CN2CC[C@H](CCCOc3cccc(-c4ccc(N5CCc6cccc(C(=O)Nc7nc8ccccc8s7)c6C5)nc4C(=O)O)c3C)C[C@@H]2C)ccc2c(C3CCC(=O)NC3=O)nn(C)c12` (some centres unmarked) [Compound 208b]: the DC50 is 10 to 100 nM and the “Ymin (24 h)” value was “B (30% ≤ Ymin < 50%)”.
As for `COc1c(NC(=O)CN2CCC(CCCOc3cccc(-c4ccc(N5CCc6cccc(C(=O)Nc7nc8ccccc8s7)c6C5)nc4C(=O)O)c3F)CC2)ccc2c(C3CCC(=O)NC3=O)nn(C)c12` (centres unmarked) [Compound 200], the DC50 lay within 10 to 100 nM and the “Ymin (24 h)” value was “B (30% ≤ Ymin < 50%)”.
With `Cc1c(OCCC[C@@H]2CCN(CC(=O)Nc3ccc4c(C5CCC(=O)NC5=O)nn(C)c4c3)[C@@H](C)C2)cccc1-c1ccc(N2CCc3cccc(C(=O)Nc4nc5ccccc5s4)c3C2)nc1C(=O)O` (some centres unmarked) [Compound 208a], the DC50 lay within 10 to 100 nM and the “Ymin (24 h)” value was “B (30% ≤ Ymin < 50%)”.
For the compound `Cn1nc(C2CCC(=O)NC2=O)c2ccc(NC(=O)CN3CCC(CCCOc4cccc(-c5ccc(N6CCc7ccnc(C(=O)Nc8nc9ccccc9s8)c7C6)nc5C(=O)O)c4C(F)(F)F)CC3)cc21` (centres unmarked) [Compound 159, 6-[8-(1,3-benzothiazol-2-ylcarbamoyl)-3,4-dihydro-1H-2,7-naphthyridin-2-yl]-3-[3-[3-[1-[2-[[3-(2,6-dioxo-3-piperidyl)-1-methyl-indazol-6-yl]amino]-2-oxo-ethyl]-4-piperidyl]propoxy]-2-(trifluoromethyl)phenyl]pyridine-2-carboxylic acid], the DC50 is 10 to 100 nM and the “Ymin (24 h)” value is listed as “B (30% ≤ Ymin < 50%)”.
Take `Cc1c(OCC2CC3(CCN(CC(=O)Nc4ccc5c(C6CCC(=O)NC6=O)nn(C)c5c4C)CC3)C2)cccc1-c1ccc(N2CCc3cccc(C(=O)Nc4nc5ccccc5s4)c3C2)nc1C(=O)O` (centres unmarked) [Compound 117]: the DC50 is 10 to 100 nM and the “Ymin (24 h)” value is given as “B (30% ≤ Ymin < 50%)”.
Turning to `C[C@H]1C[C@H](CCCOc2cccc(-c3ccc(N4CCc5cccc(C(=O)Nc6nc7ccccc7s6)c5C4)nc3C(=O)O)c2C(F)(F)F)CCN1CC(=O)Nc1ccc2c(C3CCC(=O)NC3=O)nn(C)c2c1` (some centres unmarked) [Compound 215a], the DC50 fell in the range of 10 to 100 nM and the “Ymin (24 h)” value is given as “B (30% ≤ Ymin < 50%)”.
On to `Cc1c(OCCC[C@@H]2C[C@H]3CC[C@@H](C2)N3CC(=O)Nc2ccc3c(C4CCC(=O)NC4=O)nn(C)c3c2)cccc1-c1ccc(N2CCc3cccc(C(=O)Nc4nc5ccccc5s4)c3C2)nc1C(=O)O` (some centres unmarked) [Compound 175a], for which the DC50 was less than 10 nM and the “Ymin (24 h)” value is given as “B (30% ≤ Ymin < 50%)”.
Regarding `Cn1nc(C2CCC(=O)NC2=O)c2ccc(NC(=O)CN3CCC4(CC3)CC(COc3ccc(-c5ccc(N6CCc7cccc(C(=O)Nc8nc9ccccc9s8)c7C6)nc5C(=O)O)c(C(F)(F)F)c3)C4)cc21` (centres unmarked) [Compound 131, 6-(8-(benzo[d]thiazol-2-ylcarbamoyl)-3,4-dihydroisoquinolin-2(1H)-yl)-3-(4-((7-(2-((3-(2,6-dioxopiperidin-3-yl)-1-methyl-1H-indazol-6-yl)amino)-2-oxoethyl)-7-azaspiro[3.5]nonan-2-yl)methoxy)-2-(trifluoromethyl)phenyl)picolinic acid], the DC50 is less than 10 nM and the “Ymin (24 h)” value is listed as “B (30% ≤ Ymin < 50%)”.
On to `Cc1c(OC[C@H]2C[C@H]2CC2CCN(CC(=O)Nc3ccc4c(C5CCC(=O)NC5=O)nn(C)c4c3)CC2)cccc1-c1ccc(N2CCc3cccc(C(=O)Nc4nc5ccccc5s4)c3C2)nc1C(=O)O` (single isomer, unassigned) [Compound 1004d], for which the DC50 was in the range of 10 to 100 nM and the “Ymin (24 h)” value is listed as “B (30% ≤ Ymin < 50%)”.
In the case of `COc1c(NC(=O)CN2CC[C@H](CCCOc3ccc(-c4ccc(N5CCc6cccc(C(=O)Nc7nc8ccccc8s7)c6C5)nc4C(=O)O)c(C)c3)C[C@H]2C)ccc2c(C3CCC(=O)NC3=O)nn(C)c12` (some centres unmarked) [Compound 210c], the DC50 was less than 10 nM and the “Ymin (24 h)” value is recorded as “A (Ymin < 30%)”.
As to `Cc1cc(O[C@@H](C)CCC2CCN(CC(=O)Nc3ccc4c(C5CCC(=O)NC5=O)nn(C)c4c3F)CC2)ccc1-c1ccc(N2CCc3cccc(C(=O)Nc4nc5ccccc5s4)c3C2)nc1C(=O)O` (single isomer, unassigned) [Compound 224a], the DC50 lay within 10 to 100 nM and the “Ymin (24 h)” value was “B (30% ≤ Ymin < 50%)”.
`Cc1cc(OC2CC3(CCN(CC(=O)Nc4ccc5c(C6CCC(=O)NC6=O)nn(C)c5n4)CC3)C2)ccc1-c1ccc(N2CCc3ccnc(C(=O)Nc4nc5ccccc5s4)c3C2)nc1C(=O)O` (centres unmarked) [Compound 213]: the DC50 is less than 10 nM and the “Ymin (24 h)” value is given as “A (Ymin < 30%)”.
